Paper PMC12521527, “In vivo self-assembled nano-PROTAC for the dual degradation of AR and HSP90 to overcome castration-resistant prostate cancer resistance” (Signal Transduction and Targeted Therapy, 2025)
Numbered stars: 1 amine (or outer) side, 2 acyl side, 3 side chain; on linkers, the order of the positions; unused ones are H or OH. Square brackets hold non-standard residues; d marks the D form. Peptide text beside a SMILES is read from it. * marks the point of attachment. X2 = CC1(C)C(=O)N(c2ccc(C#N)c(C(F)(F)F)c2)C(=S)N1c1ccc(C(=O)*)c(F)c1; X1 = O=C1CCC(N2C(=O)c3cccc(N(CC(=O)[*:2])[*:1])c3C2=O)C(=O)N1; EuK = O=C(O)CC[C@H](NC(=O)N[C@@H](CCCCN*)C(=O)O)C(=O)O; 2Nal = N[C@@H](Cc1ccc2ccccc2c1)C(=O)O

Tests used:
[1] = ThT assay of self-assembly (critical assembly concentration, assembly kinetics); assay type: physicochemical
[2] = system: HSP90; assay: Western blot HSP90 degradation in 22Rv1 cells; assay type: cell-based
Experimental: (§1) All uncropped blots are presented in Supplementary Fig. 26. j, k Representative 22Rv1 cell CLSM images of the degradation of AR after incubation with FITC-labeled Psa-AR for 12 h and quantitative analysis, n = 3 per group. Scale bar: 10 μm. l, m Representative 22Rv1 cell CLSM images of the degradation of HSP90 after incubation with FITC-labeled Psa-AR for 12 h and quantitative analysis, n = 3 per group. Scale bar: 10 μm. n AR-V7 expression in 22Rv1 cells after treatment with PBS, P-AR (20 μM), Psa-AR (20 μM) or Psa-AR (20 μM) combined with MG132 (2 μM) for 48 h, as determined by western blotting. β-Actin was used as an internal reference. o Results of apoptosis in 22Rv1 cells treated with PBS, P-AR (20 μM), or Psa-AR (20 μM) for 48 h, as detected by flow cytometry.
(§2) The pretreated cells were resuspended in lysis buffer containing 50 mM Tris-HCl (pH 8.0), 150 mM NaCl, 1% (v/v) Triton X-100, and protease inhibitors. The protein concentration was determined via a BCA kit (Applygen). Each sample ([…]) was subjected to SDS‒PAGE and then transferred to a PVDF membrane. The blots were blocked in 5% (wt/v) blocking buffer. After washing three times with TBST buffer (10 mM TBS solution containing 0.1% (v/v) Tween-20), the blots were incubated with primary antibodies at 4 °C on a shaker for 16 h. […]

[3] = system: AR-V7; assay: Western blot AR-V7 degradation in 22Rv1 cells; assay type: cell-based; settings: 22Rv1, 20 μM, 48 h
Experimental: as §1, §2

[4] = system: 22Rv1 xenograft tumor; assay: Antitumor efficacy in 22Rv1 xenograft mice; assay type: in vivo, BALB/c nude mice; settings: dose study, intravenous every 48 h, five cycles, 20 days
[5] = biological target: CRBN, with prebound AR (AR: Psa-AR: CRBN) (Homo sapiens, UniProt P10275+Q96SW2); assay: MST binding of binary complex (Psa-AR: AR) to CRBN; settings: binary complex Psa-AR: AR titrated against RED-CRBN 400 nM, 20 min incubation, 22 °C, n = 3, read-out: Kd, affinity for CRBN in the presence of prebound AR
CRBN, with prebound AR (AR: Psa-AR: CRBN), sequence (Q96SW2 whole entry): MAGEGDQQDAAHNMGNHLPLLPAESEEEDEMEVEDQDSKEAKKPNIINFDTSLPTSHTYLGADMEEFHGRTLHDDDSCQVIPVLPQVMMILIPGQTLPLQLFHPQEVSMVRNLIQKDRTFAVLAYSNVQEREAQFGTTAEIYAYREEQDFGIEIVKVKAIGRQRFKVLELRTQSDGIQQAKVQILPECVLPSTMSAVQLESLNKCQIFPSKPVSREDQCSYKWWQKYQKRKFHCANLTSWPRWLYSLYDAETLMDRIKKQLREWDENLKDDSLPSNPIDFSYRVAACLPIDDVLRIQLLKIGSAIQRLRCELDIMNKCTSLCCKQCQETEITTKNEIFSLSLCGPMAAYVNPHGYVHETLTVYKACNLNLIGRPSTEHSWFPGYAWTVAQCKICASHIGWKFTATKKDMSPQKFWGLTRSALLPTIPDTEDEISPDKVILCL
CRBN, with prebound AR (AR: Psa-AR: CRBN), sequence (P10275 whole entry): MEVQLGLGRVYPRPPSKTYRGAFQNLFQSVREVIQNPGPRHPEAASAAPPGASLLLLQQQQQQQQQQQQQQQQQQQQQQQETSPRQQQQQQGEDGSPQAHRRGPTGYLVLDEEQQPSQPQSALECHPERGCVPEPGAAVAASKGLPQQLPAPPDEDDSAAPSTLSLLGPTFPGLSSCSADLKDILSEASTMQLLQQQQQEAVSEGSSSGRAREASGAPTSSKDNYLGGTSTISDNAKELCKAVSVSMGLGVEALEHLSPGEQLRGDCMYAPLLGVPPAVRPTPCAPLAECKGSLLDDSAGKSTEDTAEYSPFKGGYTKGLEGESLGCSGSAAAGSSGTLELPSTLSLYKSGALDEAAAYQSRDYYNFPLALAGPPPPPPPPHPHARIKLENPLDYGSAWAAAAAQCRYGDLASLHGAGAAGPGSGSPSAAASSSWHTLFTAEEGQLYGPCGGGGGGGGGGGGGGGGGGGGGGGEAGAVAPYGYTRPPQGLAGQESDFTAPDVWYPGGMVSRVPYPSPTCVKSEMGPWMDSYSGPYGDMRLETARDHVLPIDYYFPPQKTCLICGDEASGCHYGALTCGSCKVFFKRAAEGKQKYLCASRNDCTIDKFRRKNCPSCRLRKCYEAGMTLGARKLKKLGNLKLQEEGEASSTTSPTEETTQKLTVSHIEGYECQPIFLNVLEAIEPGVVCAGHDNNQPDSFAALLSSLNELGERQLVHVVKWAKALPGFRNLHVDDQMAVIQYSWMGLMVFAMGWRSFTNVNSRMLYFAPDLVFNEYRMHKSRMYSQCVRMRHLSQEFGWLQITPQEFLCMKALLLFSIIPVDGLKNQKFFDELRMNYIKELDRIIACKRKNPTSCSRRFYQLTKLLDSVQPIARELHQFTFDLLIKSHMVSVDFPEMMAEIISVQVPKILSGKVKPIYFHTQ
Excerpt: (§3) Fig. 3 Polynary nanocomposite (AR: Psa-AR: CRBN) formation. a Dose‒response curve for the binding interaction between Psa-AR and the AR protein; n = 3 per group. b Dose‒response curve for the binding interaction between Psa-AR and the CRBN protein; n = 3 per group. c Dose‒response curve for the binding interaction between the binary complex (Psa-AR: AR) and CRBN, n = 3 per group. d In vitro Psa-AR self-assembly, protein binding and degradation. e Representative 22Rv1 cell CLSM images of FITC-labeled Psa-AR assembly (green channel) interacting with HSP90 (red channel) and its colocalization analysis (1–1’). […] Scale bar: 10 μm.
(§4) MST (NanoTemper Technologies GmbH, Munich, Germany) was utilized to evaluate the binding affinity between Psa-AR and RED-NHS-labeled PSMA, AR, or CRBN proteins. The PSMA, AR, and CRBN proteins were labeled with the Protein Labeling Kit RED-NHS 2nd Generation (Amine Reactive). RED-PSMA, RED-AR, and RED-CRBN proteins were diluted to a final concentration of 400 nM with PBS-T buffer (0.05% Tween 20), where the fluorescence signals satisfied the typical detection limit of the Monolith NT.115 instrument (NanoTemper Technologies). The binding affinity between Psa-AR and the RED-NHS-labeled AR protein was assessed. […] Then, 10 µL of RED-CRBN was added to each sample to achieve a final concentration of 400 nM. […] The data were analyzed by NanoTemper analysis software.

[6] = biological target: CRBN protein (Homo sapiens, UniProt Q96SW2); assay: MST binding affinity, Psa-AR and CRBN protein; settings: RED-NHS-labeled CRBN 400 nM, PBS-T, 22 °C, n = 3
CRBN protein, sequence (Q96SW2 whole entry): as the sequence (Q96SW2 whole entry) above
Excerpt: as §3, §4

[7] = system: AR; assay: Western blot AR degradation in 22Rv1 cells; assay type: cell-based
Experimental: as §1
The pretreated cells were resuspended in lysis buffer containing 50 mM Tris-HCl (pH 8.0), 150 mM NaCl, 1% (v/v) Triton X-100, and protease inhibitors. The protein concentration was determined via a BCA kit (Applygen). Each sample ([…]) was subjected to SDS‒PAGE and then transferred to a PVDF membrane. The blots were blocked in 5% (wt/v) blocking buffer. After washing three times with TBST buffer (10 mM TBS solution containing 0.1% (v/v) Tween-20), the blots were incubated with primary antibodies at 4 °C on a shaker for 16 h. After washing with TBST buffer three times, the blot was incubated with secondary antibodies at room temperature on a shaker for 2 h. After being washed three times with TBST buffer, the blots were subsequently scanned on a Typhoon Trio Variable Mode Imager.

[8] = western blot, 22Rv1, 20 μM, 48 h

In the case of `CC1(C)C(=O)N(c2ccc(C#N)c(C(F)(F)F)c2)C(=S)N1c1ccc(C(=O)NCCCC[C@H](NC(=O)CNc2cccc3c2C(=O)N(C2CCC(=O)NC2=O)C3=O)C(=O)N[C@@H](CS)C(=O)N[C@@H](CCC(N)=O)C(=O)N[C@@H](Cc2ccc(O)cc2)C(=O)N[C@@H](CC(N)=O)C(=O)N[C@@H](CCC(N)=O)C(=O)N[C@@H](Cc2ccc(O)cc2)C(=O)N[C@@H](Cc2ccc(O)cc2)C(=O)N[C@@H](Cc2ccc3ccccc3c2)C(=O)NCCCC[C@H](NC(=O)N[C@@H](CCC(=O)O)C(=O)O)C(=O)O)c(F)c1` (stereo partly drawn) [Psa-AR] (H-[X1]K(X2)CQYNQYY[2Nal]-EuK), the “lowering of CAC by PSMA binding” value ([1]; ThT assay, 95.5–10.9 μM) is reported as 8.76 fold, the “time to full assembly equilibrium, PSMA-bound” value ([1]; ThT kinetic curve, 40 μM, PSMA added) is reported as 12 h and the “t1/2 of self-assembly (50% assembly), PSMA-bound” value ([1]; ThT kinetic curve, 40 μM, PSMA added, n = 3) is reported as 1.4 h. The “time to full assembly equilibrium, unbound” value ([1]; ThT kinetic curve, 40 μM, without PSMA) was 60 h, the “t1/2 of self-assembly (50% assembly), unbound” value ([1]; ThT kinetic curve, 40 μM, without PSMA, n = 3) was 11.4 h and the “critical assembly concentration (CAC) with PSMA added” value ([1]; standard ThT assay, PSMA added, n = 3, P-AR tested up to 50 μM) was 10.9 µM. The “critical assembly concentration (CAC)” value ([1]; standard ThT assay, without PSMA, n = 3) was 95.5 µM, the HSP90 degradation ([2]; 22Rv1, 20 μM, 48 h, western blot) was over 60% and the “sustained HSP90 protein clearance over 96 h” value ([2]; 22Rv1, optimal concentrations, 96 h) was 78%. For the same compound, the “greater AR-V7 degradation than P-AR” value [3] was 66%, the “mean tumor volume at 10 mg/kg” value [4] was 220 mm^3 and the FTIR amide I peak without PSMA was 1660 cm⁻¹. For the same compound, the Kd [5] was 1.14 µM, the Kd [6] was 1.06 µM and the “AR protein knockdown maintained within 96-h observation period” value ([7]; 22Rv1, 20 μM, 12–96 h) was “over 99%”. The DC50 ([7]; 22Rv1 cell line, 1 to 100 μM, read-out: DC50 for AR protein degradation) was 9.45 µM, the “AR degradation compared with PBS controls” value [7, 8] was 79% and the “enhancement of AR degradation over P-AR” value [7, 8] was 45%.
